# Active and inactive are the calls of the source. No rule for the calls is given here.
# System: CCRIS mutagenicity, Ames/micronucleus/aberration tests
# Assay: CCRIS mutagenicity studies
# [1] = Test System: AMES SALMONELLA TYPHIMURIUM, Strain/Indicator: TA100, Metabolic Activation: NONE, Method: PREINCUBATION
# [2] = Test System: AMES SALMONELLA TYPHIMURIUM, Strain/Indicator: TA102, Metabolic Activation: NONE, Method: PREINCUBATION
# [3] = Test System: AMES SALMONELLA TYPHIMURIUM, Strain/Indicator: TA98, Metabolic Activation: NONE, Method: STANDARD PLATE
# [4] = Test System: AMES SALMONELLA TYPHIMURIUM, Strain/Indicator: TA98, Metabolic Activation: RAT, LIVER, S-9, AROCLOR 1254, Method: STANDARD PLATE
# [5] = Test System: AMES SALMONELLA TYPHIMURIUM, Strain/Indicator: TA1538, Metabolic Activation: NONE, Method: STANDARD PLATE
# [6] = Test System: AMES SALMONELLA TYPHIMURIUM, Strain/Indicator: TA1538, Metabolic Activation: RAT, LIVER, S-9, AROCLOR 1254, Method: STANDARD PLATE
# [7] = Test System: CHINESE HAMSTER V-79, Strain/Indicator: V-79/6-THIOGUANINE, Metabolic Activation: NONE
smiles,measurement,setting,value
CCC(C)[N+](=O)[O-] (centres undefined),mutagenic call,[1],inactive; negative
same,mutagenic call,"Test System: AMES SALMONELLA TYPHIMURIUM, Strain/Indicator: TA100, Metabolic Activation: RAT, LIVER, S-9, AROCLOR, Method: PREINCUBATION",inactive; negative
same,mutagenic call,[2],inactive; negative
same,mutagenic call,"Test System: AMES SALMONELLA TYPHIMURIUM, Strain/Indicator: TA102, Metabolic Activation: RAT, LIVER, S-9, AROCLOR, Method: PREINCUBATION",inactive; negative
same,mutagenic call,"Test System: E. COLI, Strain/Indicator: WP2 UVRA (PKM101), Metabolic Activation: NONE, Method: PREINCUBATION",active; positive
same,mutagenic call,"Test System: E. COLI, Strain/Indicator: WP2 UVRA (PKM101), Metabolic Activation: RAT, LIVER, S-9, KANECHLOR 1254, Method: PREINCUBATION",active; positive
same,mutagenic call,"Test System: UDS RAT HEPATOCYTES, Strain/Indicator: THY INCORP, Metabolic Activation: NONE",active; positive
Cc1cc2ccccc2c2ccc3c(c12)C=CC(=O)C3=O,mutagenic call,"Test System: AMES SALMONELLA TYPHIMURIUM, Strain/Indicator: TA97A, Metabolic Activation: NONE, Method: PREINCUBATION",active; positive
same,mutagenic call,"Test System: AMES SALMONELLA TYPHIMURIUM, Strain/Indicator: TA98, Metabolic Activation: NONE, Method: PREINCUBATION",inactive; negative
same,mutagenic call,[1],active; positive
same,mutagenic call,[2],inactive; negative
same,mutagenic call,"Test System: AMES SALMONELLA TYPHIMURIUM, Strain/Indicator: TA104, Metabolic Activation: NONE, Method: PREINCUBATION",inactive; negative
CC(=O)N(O)c1ccc2c(c1)Cc1ccccc1-2,mutagenic call,"Test System: AMES SALMONELLA TYPHIMURIUM, Strain/Indicator: TA98, Metabolic Activation: GUINEA PIG, LIVER, HEPATOCYTES",active; positive
same,mutagenic call,"Test System: AMES SALMONELLA TYPHIMURIUM, Strain/Indicator: TA98, Metabolic Activation: GUINEA PIG, LIVER, S-9, Method: STANDARD PLATE",active; positive
same,mutagenic call,"Test System: AMES SALMONELLA TYPHIMURIUM, Strain/Indicator: TA98, Metabolic Activation: HAMSTER, LIVER, HEPATOCYTES",active; positive
same,mutagenic call,"Test System: AMES SALMONELLA TYPHIMURIUM, Strain/Indicator: TA98, Metabolic Activation: HAMSTER, LIVER, S-9, Method: STANDARD PLATE",active; positive
same,mutagenic call,"Test System: AMES SALMONELLA TYPHIMURIUM, Strain/Indicator: TA98, Metabolic Activation: HUMAN, FETAL LIVER, S-9",active; positive
same,mutagenic call,"Test System: AMES SALMONELLA TYPHIMURIUM, Strain/Indicator: TA98, Metabolic Activation: MOUSE, LIVER, HEPATOCYTES",active; positive
same,mutagenic call,"Test System: AMES SALMONELLA TYPHIMURIUM, Strain/Indicator: TA98, Metabolic Activation: MOUSE, LIVER, S-9, Method: STANDARD PLATE",active; positive
same,mutagenic call,[3],active; positive
same,mutagenic call,"Test System: AMES SALMONELLA TYPHIMURIUM, Strain/Indicator: TA98, Metabolic Activation: RABBIT, LIVER, MICROSOMAL FRACTION, Method: STANDARD PLATE",active; positive
same,mutagenic call,"Test System: AMES SALMONELLA TYPHIMURIUM, Strain/Indicator: TA98, Metabolic Activation: RABBIT, LUNG, MICROSOMAL FRACTION, Method: STANDARD PLATE",active; positive
same,mutagenic call,"Test System: AMES SALMONELLA TYPHIMURIUM, Strain/Indicator: TA98, Metabolic Activation: RAT, LIVER, HEPATOCYTES",active; positive
same,mutagenic call,[4],active; positive
same,mutagenic call,"Test System: AMES SALMONELLA TYPHIMURIUM, Strain/Indicator: TA98, Metabolic Activation: RAT, LIVER, S-9, Method: STANDARD PLATE",active; positive
same,mutagenic call,"Test System: AMES SALMONELLA TYPHIMURIUM, Strain/Indicator: TA98, Metabolic Activation: V-79 CELL HOMOGENATE, Method: PREINCUBATION",active; positive
same,mutagenic call,[5],active; positive
same,mutagenic call,[6],active; positive
same,mutagenic call,"Test System: AMES SALMONELLA TYPHIMURIUM, Strain/Indicator: TA1538, Metabolic Activation: RAT, LIVER, S-9, KC500 OR PHENOBARBITAL, Method: LIQUID SUSPENSION",active; positive
same,mutagenic call,"Test System: AMES SALMONELLA TYPHIMURIUM, Strain/Indicator: YG1012, Metabolic Activation: NONE, Method: PREINCUBATION",active; positive
same,mutagenic call,"Test System: AMES SALMONELLA TYPHIMURIUM, Strain/Indicator: YG1019, Metabolic Activation: NONE, Method: PREINCUBATION",active; positive
same,mutagenic call,"Test System: AMES SALMONELLA TYPHIMURIUM, Strain/Indicator: YG1020, Metabolic Activation: NONE, Method: PREINCUBATION",active; positive
same,mutagenic call,"Test System: AMES SALMONELLA TYPHIMURIUM, Strain/Indicator: YG1024, Metabolic Activation: NONE, Method: PREINCUBATION",active; positive
same,mutagenic call,[7],active; positive
same,mutagenic call,"Test System: CHINESE HAMSTER V-79, Strain/Indicator: V-79/8-AZAGUANINE, Metabolic Activation: NONE, Method: STANDARD PLATE",active; positive
same,mutagenic call,"Test System: E. COLI, Strain/Indicator: WP2 UVRA, Metabolic Activation: NONE, Method: STANDARD PLATE",inactive; negative
same,mutagenic call,"Test System: UDS GUINEA PIG HEPATOCYTES, Strain/Indicator: THY INCORP, Metabolic Activation: NONE, Method: LIQUID SCINTILLATION COUNTING",active; positive
same,mutagenic call,"Test System: UDS HAMSTER HEPATOCYTES, Strain/Indicator: THY INCORP, Metabolic Activation: NONE, Method: LIQUID SCINTILLATION COUNTING",active; positive
same,mutagenic call,"Test System: UDS HUMAN CELLS, Strain/Indicator: THY INCORP (NON-S-PHASE), Metabolic Activation: RAT, LIVER, S-9, PHENOBARBITAL, Method: LIQUID SCINTILLATION COUNTING",active; positive
same,mutagenic call,"Test System: UDS HUMAN FIBROBLASTS, Strain/Indicator: THY INCORP (NON-S-PHASE), Metabolic Activation: NONE, Method: AUTORADIOGRAPHY",active; positive
same,mutagenic call,"Test System: UDS HUMAN FIBROBLASTS, Strain/Indicator: THY INCORP (NON-S-PHASE), Metabolic Activation: NONE, Method: LIQUID SCINTILLATION COUNTING",active; positive
same,mutagenic call,"Test System: UDS HUMAN LYMPHOCYTES, Strain/Indicator: THY INCORP (NON-S-PHASE), Metabolic Activation: NONE, Method: LIQUID SCINTILLATION COUNTING",active; positive
same,mutagenic call,"Test System: UDS MOUSE HEPATOCYTES, Strain/Indicator: THY INCORP, Metabolic Activation: NONE, Method: LIQUID SCINTILLATION COUNTING",active; positive
same,mutagenic call,"Test System: UDS RAT HEPATOCYTES, Strain/Indicator: THY INCORP, Metabolic Activation: NONE, Method: LIQUID SCINTILLATION COUNTING",active; positive
same,mutagenic call,"Test System: UDS RODENT HEPATOCYTES, Strain/Indicator: THY INCORP (NON-S-PHASE), Method: AUTORADIOGRAPHY",active; positive
same,mutagenic call,"Test System: UDS RODENT HEPATOCYTES, Strain/Indicator: THY INCORP (NON-S-PHASE), Method: LIQUID SCINTILLATION COUNTING",active; positive
N#Cc1cc([N+](=O)[O-])ccc1N=Nc1ccc(N(CCO)CCO)cc1,mutagenic call,[3],active; positive
same,mutagenic call,[4],active; positive
same,mutagenic call,"Test System: AMES SALMONELLA TYPHIMURIUM, Strain/Indicator: TA100, Metabolic Activation: NONE, Method: STANDARD PLATE",active; positive
same,mutagenic call,"Test System: AMES SALMONELLA TYPHIMURIUM, Strain/Indicator: TA100, Metabolic Activation: RAT, LIVER, S-9, AROCLOR 1254, Method: STANDARD PLATE",active; positive
same,mutagenic call,"Test System: AMES SALMONELLA TYPHIMURIUM, Strain/Indicator: TA1535, Metabolic Activation: NONE, Method: STANDARD PLATE",inactive; negative
same,mutagenic call,"Test System: AMES SALMONELLA TYPHIMURIUM, Strain/Indicator: TA1535, Metabolic Activation: RAT, LIVER, S-9, AROCLOR 1254, Method: STANDARD PLATE",inactive; negative
same,mutagenic call,"Test System: AMES SALMONELLA TYPHIMURIUM, Strain/Indicator: TA1537, Metabolic Activation: NONE, Method: STANDARD PLATE",active; positive
same,mutagenic call,"Test System: AMES SALMONELLA TYPHIMURIUM, Strain/Indicator: TA1537, Metabolic Activation: RAT, LIVER, S-9, AROCLOR 1254, Method: STANDARD PLATE",active; positive
same,mutagenic call,[5],active; positive
same,mutagenic call,[6],active; positive
same,mutagenic call,"Test System: CHINESE HAMSTER V-79, Strain/Indicator: V-79 (HGPRT)/6-THIOGUANINE, Metabolic Activation: RAT, LIVER, S-9, AROCLOR 1254",inactive; negative
same,mutagenic call,[7],inactive; negative
same,mutagenic call,"Test System: UDS RAT HEPATOCYTES, Strain/Indicator: THY INCORP, Metabolic Activation: NONE, Method: AUTORADIOGRAPHY",inactive; negative

# From PubChem BioAssay AID1259407 (Chemical Carcinogenesis Research Information System (CCRIS), 2018)
